Data set [1] in a line: Liver microsomes study, Phase I stability (HLM). The data set is classed as in vitro ADME, human. Conditions: pH 7.4; human liver microsomes 0.5 mg/mL, 1 μM test article; read-out: HLM Clint. The procedure:
(§1) Commercially available liver microsomes (MsLM vendor: XENOTECH; RLM, DLM, MkL, HLM vendor: Corning) were used for study the Phase I stability of test articles. […] The reaction was initiated by addition of 80 μL of the NADPH regenerating system to 320 µL of each incubation mixture per time point. […] The 0-minute samples were prepared by addition of an 80 μL aliquot of each incubation mixture to 400 μL quench reagent to precipitate proteins. And then a 20 μL aliquot of the NADPH regenerating system was added. At 10, 30, and 90 minutes, the reaction will be stopped by the addition of cold acetonitrile solution containing tolbutamide and propanolol served as internal standard. The samples taken at all time points were centrifuged at 4000×g for 15 minutes. 80 μL of supernatant are taken into 96-well assay plates pre-added with 160 μL ultrapure water, and then analyzed by LC/MS/MS(Shimadzu LC30AD & API4000/API5000)). Concentrations of test articles, control compounds in the samples were determined by using LC/MS/MS) method. Plotting of the chromatograms and peak area integrations are carried out by Analyst (AB Sciex).
(§2) In the determination of the in vitro elimination constant, ke, of the control compounds, the analyte/internal standard peak area ratios will be converted to percentage remaining (% Remaining) with the following equation: […]
(§3) The slope was measured by the natural logarithm of the percentage of the residual compound and time, T½ and CLint were calculated according to the following formulas, V/M was equal to the 1/concentration of protein.
(Liver microsomes are a subcellular fraction often used to study metabolism.)

Data set [2] can be described thus: Liver microsomes study, Phase I stability (RLM). The data set is classed as in vitro ADME, rat. Conditions: pH 7.4; rat liver microsomes 0.5 mg/mL, 1 μM test article; read-out: RLM Clint. The procedure: as §1, §2, §3
The next data set deals with T1, JAK2 (Homo sapiens, UniProt O60674).
T1 construct: purchased Carna Biosciences
T1 sequence (O60674 whole entry): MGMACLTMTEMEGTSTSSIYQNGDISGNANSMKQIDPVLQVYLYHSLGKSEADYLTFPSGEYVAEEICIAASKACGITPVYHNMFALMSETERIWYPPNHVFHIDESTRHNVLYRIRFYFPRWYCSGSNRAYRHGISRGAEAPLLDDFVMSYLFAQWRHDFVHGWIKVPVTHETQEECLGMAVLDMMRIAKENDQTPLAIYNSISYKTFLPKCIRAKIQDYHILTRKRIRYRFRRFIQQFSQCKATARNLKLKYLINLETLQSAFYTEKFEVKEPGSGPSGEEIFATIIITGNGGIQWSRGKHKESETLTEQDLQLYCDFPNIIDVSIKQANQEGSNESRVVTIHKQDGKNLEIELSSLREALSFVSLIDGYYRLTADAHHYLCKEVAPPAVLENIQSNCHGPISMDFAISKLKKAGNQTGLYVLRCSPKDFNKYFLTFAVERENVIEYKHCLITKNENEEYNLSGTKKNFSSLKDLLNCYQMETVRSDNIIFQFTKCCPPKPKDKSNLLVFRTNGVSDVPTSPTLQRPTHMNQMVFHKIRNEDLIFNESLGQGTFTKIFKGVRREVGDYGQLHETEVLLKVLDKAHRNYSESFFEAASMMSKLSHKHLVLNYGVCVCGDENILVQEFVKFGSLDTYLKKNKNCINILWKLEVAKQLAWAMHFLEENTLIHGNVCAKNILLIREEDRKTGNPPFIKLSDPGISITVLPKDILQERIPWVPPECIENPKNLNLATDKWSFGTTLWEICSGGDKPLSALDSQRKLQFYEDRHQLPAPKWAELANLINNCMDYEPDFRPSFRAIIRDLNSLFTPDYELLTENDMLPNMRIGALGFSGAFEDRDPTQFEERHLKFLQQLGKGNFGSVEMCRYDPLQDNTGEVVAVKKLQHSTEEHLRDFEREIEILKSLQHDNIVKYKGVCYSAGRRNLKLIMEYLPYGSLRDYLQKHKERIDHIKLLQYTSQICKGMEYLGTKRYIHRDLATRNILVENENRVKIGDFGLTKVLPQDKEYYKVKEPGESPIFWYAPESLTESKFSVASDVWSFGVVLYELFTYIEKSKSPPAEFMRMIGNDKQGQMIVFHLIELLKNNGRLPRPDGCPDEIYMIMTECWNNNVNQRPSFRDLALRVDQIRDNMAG
Briefly: JAK2 microfluidic kinase assay (Caliper EZ Reader II, FAM labeled peptide substrate). It is filed as biochemical. In short, it runs like this: (§4)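 Activity measured in 50 mM HEPES, 0.01% Brij35, 10 mM MgCl2, 2 mM DTT by microfluidic separation of phosphorylated FAM peptide. Enzyme conditions set for 10% substrate conversion.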

The target of the next data set is T2, JAK2V617F (Homo sapiens, UniProt O60674, V617F).
T2 construct: purchased Carna Biosciences
T2 sequence (O60674 whole entry V617F): as the sequence (O60674 whole entry) above, with V617F counted along it
The data set can be described thus: JAK2V617F microfluidic kinase assay (Caliper EZ Reader II, FAM labeled peptide substrate). The data set is classed as biochemical. Conditions: JAK2V617F 2.5 nM, 1 mM ATP. Put shortly: as §4

The next data set has as its target T3, JAK1 (Homo sapiens, UniProt P23458).
T3 construct: purchased Carna Biosciences
Briefly: JAK1 microfluidic kinase assay (Caliper EZ Reader II, FAM labeled peptide substrate). It is filed as biochemical. Conditions: IC50 JAK1 (5 nM) (1 m MATP), JAK1 5 nM, 1 mM ATP. In short, it runs like this: as §4

Setting [3] is: IC50 JAK2 ([…]) (Km ATP), Km ATP.
The mark [4] stands for this setting: IC50 JAK2 ([…]) (1 mM ATP), 1 mM ATP.

What is called pIC50 is the negative decadic logarithm of the IC50, by convention in mol/L. Lower therefore signals a large IC50.

The structures appear in SMILES notation. pIC50: −log10 of the molar value.

T3 sequence (P23458 whole entry): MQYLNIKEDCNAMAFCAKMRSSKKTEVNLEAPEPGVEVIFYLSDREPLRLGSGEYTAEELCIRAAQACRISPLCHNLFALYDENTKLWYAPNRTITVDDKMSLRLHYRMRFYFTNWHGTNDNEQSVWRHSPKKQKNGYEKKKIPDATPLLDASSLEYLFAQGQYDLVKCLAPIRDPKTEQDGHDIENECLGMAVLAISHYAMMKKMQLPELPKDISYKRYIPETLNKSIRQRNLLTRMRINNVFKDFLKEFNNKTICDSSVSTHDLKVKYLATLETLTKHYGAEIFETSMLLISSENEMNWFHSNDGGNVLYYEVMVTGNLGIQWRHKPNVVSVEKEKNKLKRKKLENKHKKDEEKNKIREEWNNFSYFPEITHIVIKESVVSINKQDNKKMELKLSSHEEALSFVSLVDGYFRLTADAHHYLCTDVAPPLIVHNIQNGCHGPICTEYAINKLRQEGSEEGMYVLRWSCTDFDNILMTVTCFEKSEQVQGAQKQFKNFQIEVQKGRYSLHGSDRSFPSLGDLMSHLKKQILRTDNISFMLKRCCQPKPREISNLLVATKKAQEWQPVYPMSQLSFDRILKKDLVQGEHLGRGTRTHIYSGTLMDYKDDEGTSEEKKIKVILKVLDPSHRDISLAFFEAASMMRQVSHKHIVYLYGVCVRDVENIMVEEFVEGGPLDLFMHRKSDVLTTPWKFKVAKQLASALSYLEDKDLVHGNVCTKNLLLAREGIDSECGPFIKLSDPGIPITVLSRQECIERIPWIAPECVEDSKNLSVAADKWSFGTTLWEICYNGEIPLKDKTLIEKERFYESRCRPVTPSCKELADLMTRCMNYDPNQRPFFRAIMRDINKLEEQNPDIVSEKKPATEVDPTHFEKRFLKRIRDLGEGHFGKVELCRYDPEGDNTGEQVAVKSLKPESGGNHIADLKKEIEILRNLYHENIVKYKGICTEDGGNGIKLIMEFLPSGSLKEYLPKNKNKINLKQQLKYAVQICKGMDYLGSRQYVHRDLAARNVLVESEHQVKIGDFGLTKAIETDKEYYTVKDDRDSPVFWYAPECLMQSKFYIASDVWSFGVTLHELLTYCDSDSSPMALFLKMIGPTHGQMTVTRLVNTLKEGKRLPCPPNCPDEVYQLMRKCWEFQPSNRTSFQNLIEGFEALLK

Turning to `COCCNC(=O)c1ccc(-c2nc(Nc3cnn(C)c3)ncc2C)cc1` [Example 6, N-(2-Methoxyethyl)-4-(5-methyl-2-((1-methyl-1H-pyrazol-4-yl)amino)pyrimidin-4-yl)benzamide], the microsomal CLint at 1 μM amounted to 6.6 µL/min/mg in data set [1] and 2.58 µL/min/mg in data set [2]. For the same molecule, the negative logarithm of the IC50 (pIC50) against JAK2 (setting [3]) was 8.08; against JAK2V617F it was 6.17; against JAK1, 7.12.
On to `Cc1cnc(Nc2cnn(C3CCN(C(=O)C(C)(C)O)CC3)c2)nc1-c1ccc(C(=O)NCC#N)cc1` [Example 51, N-(cyanomethyl)-4-(2-((1-(1-(2-hydroxy-2-methylpropanoyl)piperidin-4-yl)-1H-pyrazol-4-yl)amino)-5-methylpyrimidin-4-yl)benzamide], for which the microsomal CLint at 1 μM in data set [1] is 33.9 µL/min/mg; in data set [2], 17.1 µL/min/mg. Also, the pIC50 against JAK2V617F is 9.29; on JAK1, 8.06.
Taken in the same sequence, the figures for `Cc1cnc(Nc2cnn(C3C[C@@H](C)O[C@@H](C)C3)c2)nc1-c1ccc(C(=O)NCC#N)cc1` (stereo partly drawn) [Example 68] were 141 µL/min/mg, 228 µL/min/mg, 8.04 and 7.52.
Taken in the same sequence, the figures for `Cc1cnc(Nc2cnn(C3C[C@H]4CC[C@@H](C3)O4)c2)nc1-c1ccc(C(=O)N[C@@H](C)C#N)cc1` (stereo partly drawn) [Example 70, 4-(2-((1-((1R,5S)-8-oxabicyclo[3.2.1]octan-3-yl)-1H-pyrazol-4-yl)amino)-5-methylpyrimidin-4-yl)-N—((S)-1-cyanoethyl)benzamide] were 42.9 µL/min/mg, 32.5 µL/min/mg, 8.14 and 7.91.
Taken in the same sequence, the figures for `N#CC1(CNC(=O)c2ccc(-c3nc(Nc4cnn(C5CCOCC5)c4)ncc3Cl)cc2)CC1` [Example 78, 4-(5-Chloro-2-((1-(tetrahydro-2H-pyran-4-yl)-1H-pyrazol-4-yl)amino)pyrimidin-4-yl)-N-((1-cyanocyclopropyl)methyl)benzamide] were 30 µL/min/mg, 47.2 µL/min/mg, 7.34 and 7.42.
Turning to `CO[C@H]1CC[C@H](n2cc(Nc3ncc(C)c(-c4ccc(C(=O)N[C@@H](C)C#N)cc4)n3)cn2)CC1` [Example 91, N—((S)-1-cyanoethyl)-4-(2-((1-(trans-4-methoxycyclohexyl)-1H-pyrazol-4-yl)amino)-5-methylpyrimidin-4-yl)benzamide], the figures for the microsomal CLint at 1 μM in data set [1] and in data set [2] were 6.7 µL/min/mg and 80.1 µL/min/mg, respectively. For the same molecule, the pIC50 at JAK2 (setting [4]) is 9.46; on JAK2V617F, 7.80; on JAK1 it was 7.92.
For the molecule `Cc1cnc(Nc2cnn(C)c2)nc1-c1ccc(C(=O)N[C@H](C)C#N)cc1` [Example 101, (R)—N-(1-cyanoethyl)-4-(5-methyl-2-((1-methyl-1H-pyrazol-4-yl)amino)pyrimidin-4-yl)benzamide], the microsomal CLint at 1 μM in data set [1] is 2 µL/min/mg; in data set [2], 19.2 µL/min/mg. For the same molecule, the negative-log IC50 (pIC50) is 8.35 on JAK2 (setting [3]), 6.44 against JAK2V617F and 7.12 against JAK1.
For the molecule `Cc1cnc(Nc2cnn(C3CC(C#N)C3)c2)nc1-c1ccc(C(=O)NCC#N)cc1` (stereo not drawn) [Example 106, 4-(2-((1-(3-Cyanocyclobutyl)-1H-pyrazol-4-yl)amino)-5-methylpyrimidin-4-yl)-N-(cyanomethyl)benzamide], the microsomal CLint at 1 μM worked out at 11.1 µL/min/mg in data set [1] and 38.4 µL/min/mg in data set [2]. Further, the pIC50 was 8.66 against JAK2 (setting [4]), 9.60 on JAK2 (setting [3]), 7.63 at JAK2V617F and 7.83 at JAK1.
Turning to `Cc1cnc(Nc2cnn(C(C)C(F)(F)F)c2)nc1-c1ccc(C(=O)NCC#N)cc1` (stereo not drawn) [Example 112, N-(cyanomethyl)-4-(5-methyl-2-((1-(1,1,1-trifluoropropan-2-yl)-1H-pyrazol-4-yl)amino)pyrimidin-4-yl)benzamide], the microsomal CLint at 1 μM in data set [1] came to 49.1 µL/min/mg; in data set [2], 76.4 µL/min/mg. In addition, the values for the pIC50 on JAK2 (setting [4]), against JAK2V617F and against JAK1 were 7.10, 6.92 and 8.19, respectively.
On to `N#CCNC(=O)c1ccc(-c2nc(Nc3cnn(C4CC4)c3)ncc2Cl)cn1` [Example 120, 5-(5-Chloro-2-((1-cyclopropyl-1H-pyrazol-4-yl)amino)pyrimidin-4-yl)-N-(cyanomethyl)picolinamide], for which the microsomal CLint at 1 μM in data set [1] was found to be 16.2 µL/min/mg; in data set [2] it was 47.5 µL/min/mg. Moreover, the figures for the pIC50 on JAK2V617F and against JAK1 were 6.88 and 7.40, respectively.
Consider `CC(C)(C#N)CNC(=O)c1ccc(-c2nc(Nc3cnn(C4CC4)c3)ncc2Cl)cc1` [Example 123, 4-(5-Chloro-2-((1-cyclopropyl-1H-pyrazol-4-yl)amino)pyrimidin-4-yl)-N-(2-cyano-2-methylpropyl)benzamide], for which the microsomal CLint at 1 μM worked out at 35.2 µL/min/mg in data set [1] and 77.3 µL/min/mg in data set [2]. The pIC50 against JAK2 (setting [4]) is 7.89; against JAK2V617F, 7.25; against JAK1, 7.72.
As to `Cc1cnc(Nc2cnn(C3CC3)c2)nc1-c1ccc(C(=O)N2CC(C#N)C2)c(F)c1` [Example 140, 1-(4-(2-((1-Cyclopropyl-1H-pyrazol-4-yl)amino)-5-methylpyrimidin-4-yl)-2-fluorobenzoyl)azetidine-3-carbonitrile], the results for the microsomal CLint at 1 μM in data set [1] and in data set [2] were 9.1 µL/min/mg and 628 µL/min/mg, respectively. In addition, the negative-log IC50 (pIC50) at JAK2 (setting [4]) was 6.81; on JAK2 (setting [3]), 8.19; against JAK2V617F, 6.47; against JAK1, 6.59.
Consider `Cc1cnc(Nc2cnn(C3CCN(C(=O)[C@H]4CC4(C)C)CC3)c2)nc1-c1ccc(C(=O)NCC#N)cc1` [Example 143, (S)—N-(cyanomethyl)-4-(2-((1-(1-(2,2-dimethylcyclopropanecarbonyl)piperidin-4-yl)-1H-pyrazol-4-yl)amino)-5-methylpyrimidin-4-yl)benzamide], for which the microsomal CLint at 1 μM is 1430 µL/min/mg in data set [1] and 599 µL/min/mg in data set [2]. The negative-log IC50 (pIC50) is 9.40 against JAK2 (setting [4]), 7.76 at JAK2V617F and 7.81 at JAK1.
In the case of `Cc1cnc(Nc2cnn(C3CCOCC3)c2)nc1-c1ccc(C(=O)N[C@@H](C)C#N)cc1` [Example 144, (S)—N-(1-cyanoethyl)-4-(5-methyl-2-((1-(tetrahydro-2H-pyran-4-yl)-1H-pyrazol-4-yl)amino)pyrimidin-4-yl)benzamide], the figures for the microsomal CLint at 1 μM in data set [1] and in data set [2] were 19.4 µL/min/mg and 38.6 µL/min/mg, respectively. Moreover, the negative logarithm of the IC50 (pIC50) against JAK2V617F is 7.52; against JAK1, 7.86.
Taken in the same sequence, the figures for `Cc1cnc(Nc2cnn(C3CCN(C(=O)C4CC4)CC3)c2)nc1-c1ccc(C(=O)NCC#N)nc1` [Example 150, N-(cyanomethyl)-5-(2-((1-(1-(cyclopropanecarbonyl)piperidin-4-yl)-1H-pyrazol-4-yl)amino)-5-methylpyrimidin-4-yl)picolinamide] were 56.4 µL/min/mg, 80.8 µL/min/mg, 8.38 and 7.63.
`Cc1cnc(Nc2cnn(C3CCN(C(=O)C4(F)CC4)CC3)c2)nc1-c1ccc(C(=O)NCC#N)cc1` [Example 152, N-(cyanomethyl)-4-(2-((1-(1-(1-fluorocyclopropanecarbonyl)piperidin-4-yl)-1H-pyrazol-4-yl)amino)-5-methylpyrimidin-4-yl)benzamide]: the microsomal CLint at 1 μM in data set [1] amounted to 96 µL/min/mg; in data set [2], 85.9 µL/min/mg. In addition, the negative-log IC50 (pIC50) on JAK2 (setting [4]) was > 9.60; against JAK2V617F it was 9.17; on JAK1 it was 7.83.
Regarding `Cc1cnc(Nc2cnn([C@H]3CC[C@H](C#N)CC3)c2)nc1-c1ccc(C(=O)N[C@@H](C)C#N)cc1` [Example 154, 4-(2-((1-(Trans-4-cyanocyclohexyl)-1H-pyrazol-4-yl)amino)-5-methylpyrimidin-4-yl)-N—((S)-1-cyanoethyl)benzamide], the microsomal CLint at 1 μM in data set [1] amounted to 14.7 µL/min/mg; in data set [2] it was 69 µL/min/mg. The figures for the negative logarithm of the IC50 (pIC50) against JAK2V617F and against JAK1 were 8.35 and 7.92, respectively.
With `Cc1cnc(Nc2cnn(C3CCN(C(=O)C4CC4)CC3)c2)nc1-c1ccc(C(=O)NCC2(C#N)CC2)cc1` [Example 158, N-((1-cyanocyclopropyl)methyl)-4-(2-((1-(1-(cyclopropanecarbonyl)piperidin-4-yl)-1H-pyrazol-4-yl)amino)-5-methylpyrimidin-4-yl)benzamide], the microsomal CLint at 1 μM came to 142 µL/min/mg in data set [1] and 124 µL/min/mg in data set [2]. Further, the pIC50 was 9.06 against JAK2 (setting [4]), 7.55 at JAK2V617F and 7.62 on JAK1.
